Read-outs that look alike come from different tables or passages of the source.
Experiments:
human S100A9 = target: T1, human S100A9 (Homo sapiens, UniProt P06702); assay: SPR: human S100A9 binding to immobilised ABR-224649 (Q compound), direct binding and displacement
T1 construct: made in house; host or cells: Escherichia coli (or purified from granulocytes)
T1 sequence (P06702 1-114): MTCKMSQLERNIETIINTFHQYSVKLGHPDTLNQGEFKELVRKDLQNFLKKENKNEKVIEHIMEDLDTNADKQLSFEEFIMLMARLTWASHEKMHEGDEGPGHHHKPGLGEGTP
Protocol: (§1) The SPR analysis was carried out with the Biacore 3000 system (GE Healthcare). Sensor chips, amine coupling kit, immobilization and running buffers, and regeneration solutions were obtained from GE Healthcare. Working solutions of all reagents used for Biacore analysis were prepared in 0.01 M Hepes, 0.15 M NaCl (pH 7.4) containing 0.005% v/v Surfactant P-20 (HBS-P; GE Healthcare) by buffer exchange on Fast Protein Desalting Micro-Spin Columns from Pierce. ABR-215757 was immobilised onto a CM5 chip through an amino-linker (ABR-224649). […] Activity of ligands after immobilisation was tested by injecting specific antibodies (unpublished data). In some experiments, S100A9 was immobilized either by random amine coupling or with a known orientation (i.e., by sulhydryl group conjugation to the only cysteine in S100A9 at position 3).
(§2) Binding to the various surfaces was performed by injecting the analyte at a flow rate of 30 μl/min in a physiological buffer (HBS-P) containing 1 mM Ca^2+ and 10 μM Zn^2+ as proposed for S100A8/9 by Robinson et al.. A typical analysis cycle consists of: (1) pumping running buffer for 1 min to obtain a stable baseline; (2) injection of sample for an appropriate period of time (association); (3) pumping running buffer for 2.5 min (dissociation); (4) injection of a short pulse (30 s) of 15 μl 10 mM glycine-HCl (pH 2.0) (regeneration); and (5) pumping running buffer for 2 min (stabilisation after regeneration) at a flow rate of 30 μl/min. […] In one experiment, S100A9 was injected into a buffer with a fixed Ca^2+ concentration (1 mM) and Zn^2+ in the range 0–50 μM. In a second experiment, Ca^2+ was varied from 0–2 mM at a fixed Zn^2+ concentration (10 μM). In subsequent analyses, regeneration was carried out under more mild conditions, i.e., by injecting 30 μl of HBS-P containing 3 mM EDTA (HBS-EP; GE Healthcare) for 60 s, to prolong the lifespan of the chip.
(§3) Compounds were also injected over the immobilised surfaces in the absence of S100A9 to exclude, or make possible correction for, any direct binding of compound to the surface.
(§4) Evaluation was carried out using BIAevaluation Software version 3.2 (GE Healthcare). The response at steady-state was obtained by fit of sensorgrams to standard binding models, where appropriate, or calculated as responses at late association or early dissociation phase using the Steady state affinity function in BIAevaluation. Affinity was determined from kinetic analysis (on- and off-rates) or as the apparent affinity after plotting responses versus concentration of analyte in a saturation curve. In the inhibition assay format, the competitor concentration yielding 50% inhibition (IC50) was calculated by fitting data to a one-site competition model in GraphPad Prism.

human RAGE = target: T2, human RAGE (Homo sapiens, UniProt Q15109); assay: SPR: direct binding to immobilised human RAGE; conditions: unpublished data
T2 construct: purchased R&D Systems
Protocol: as §1, with “3). […]” for “3).”
as §4, with “In the inhibition assay format, the competitor concentration yielding 50% inhibition (IC50) was calculated by fitting data to a one-site competition model in GraphPad Prism.” left out

[1] = test system: aEAE development in SLJ/N mice; assay: acute experimental autoimmune encephalomyelitis (aEAE) in mice; format: in vivo, mouse; conditions: Mus musculus, read-out: aEAE Inhibition ED50
Description: A training set of five quinoline derivatives with structural diversification performed at position 5 of the quinoline ring system was used for the SAR. PCA was used to uncover any relationship between the binding activities of the quinoline derivatives at the S100 proteins and the inhibitory effect of these derivatives in the aEAE model. PLS was then used to model the relationship between the physiochemical descriptors used to characterize the compounds and their biological responses. […] All variables were mean centred and scaled to unit variance.

human TLR4/MD2 = target: T3, human TLR4/MD2 (Homo sapiens, UniProt O00206+Q9Y6Y9); assay: SPR: direct binding to immobilised human TLR4/MD2; conditions: unpublished data
T3 construct: purchased R&D Systems
Protocol: as §1, with “3). […]” for “3).”
as §4, with “In the inhibition assay format, the competitor concentration yielding 50% inhibition (IC50) was calculated by fitting data to a one-site competition model in GraphPad Prism.” left out

[2] = test system: serum TNFα after LPS challenge; assay: LPS-induced systemic TNFα production in C57BL/6 mice; format: in vivo, mouse
Protocol: TNFα induction after intraperitoneal challenge with LPS was performed essentially as described. In brief, mice were pretreated for 2 h with 10 mg/kg ABR-215757 or PBS, after which 3 or 6 μg of LPS was injected intraperitoneally. After an additional 90 min, the animals were sacrificed, and the level of TNFα in blood was determined using commercial TNFα antibodies (eBioscience; http://www.ebioscience.com).

[3] = target: T4, human S100A9 binding to human TLR4/MD2 (Homo sapiens, UniProt P06702); assay: SPR: inhibition of human S100A9 binding to immobilised human TLR4/MD2
T4 construct: purchased R&D Systems (TLR4/MD-2 complex); S100A9 made in house
T4 sequence (P06702 1-114): T1 sequence (P06702 1-114)
Protocol: as §1, §2, §3, §4

mS100A8/A9 and mLPS-Trap = target: T5, mS100A8/A9 and mLPS-Trap (Mus musculus, UniProt P31725); assay: SPR: inhibition of mouse S100A8/A9 binding to mLPS-Trap; conditions: Table S1; read-out: S100A8-9 binding IC50, mS100A8/A9 TLR4
T5 sequence (P31725 2-113 limits assumed): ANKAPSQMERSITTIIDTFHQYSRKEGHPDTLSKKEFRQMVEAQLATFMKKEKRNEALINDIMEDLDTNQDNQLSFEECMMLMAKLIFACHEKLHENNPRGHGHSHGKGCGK
Protocol: as §1, §2, §3, §4

mS100A8/A9 and mRAGE = target: T6, mS100A8/A9 and mRAGE (Mus musculus, UniProt P31725); assay: SPR: inhibition of mouse S100A8/A9 binding to mouse RAGE; conditions: Table S1
T6 construct: purchased R&D Systems (mRAGE/Fc); S100A8/A9 made in house
T6 sequence (P31725 2-113 limits assumed): T5 sequence (P31725 2-113 limits assumed)
T6 sequence (P27005 2-89 partner limits assumed): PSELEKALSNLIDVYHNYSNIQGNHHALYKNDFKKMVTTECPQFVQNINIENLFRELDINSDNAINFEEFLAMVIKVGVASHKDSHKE
Protocol: as §1, §2, §3, §4

mS100A9 = target: T7, mS100A9 (Mus musculus, UniProt P31725); assay: SPR: inhibition of mouse S100A9 binding to immobilised ABR-224649; conditions: Table S1
T7 construct: made in house; host or cells: Escherichia coli (or purified from granulocytes)
T7 sequence (P31725 1-113): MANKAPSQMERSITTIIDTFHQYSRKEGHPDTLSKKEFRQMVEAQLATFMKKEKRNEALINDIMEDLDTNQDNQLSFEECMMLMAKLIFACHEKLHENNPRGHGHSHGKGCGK
Protocol: as §1, §2, §3, §4

mS100A9 and mLPS-Trap = target: T8, mS100A9 and mLPS-Trap (Mus musculus, UniProt P31725); assay: SPR: inhibition of mouse S100A9 binding to immobilised mouse TLR4/MD2 fusion protein (mLPS-Trap)
T8 sequence (P31725 2-113 limits assumed): T5 sequence (P31725 2-113 limits assumed)
Protocol: as §1, §2, §3, §4

mS100A9 and mRAGE/hFc = target: T9, mS100A9 and mRAGE/hFc (Mus musculus, UniProt P31725); assay: SPR: inhibition of mouse S100A9 binding to immobilised mouse RAGE
T9 construct: purchased R&D Systems (mRAGE/Fc); S100A9 made in house
T9 sequence (P31725 2-113 limits assumed): T5 sequence (P31725 2-113 limits assumed)
Protocol: as §1, §2, §3, §4

[4] = target: T10, human S100A9 binding to human RAGE (Homo sapiens, UniProt P06702); assay: SPR: inhibition of human S100A9 binding to immobilised human RAGE
T10 construct: purchased R&D Systems (RAGE/Fc); S100A9 made in house
T10 sequence (P06702 1-114): T1 sequence (P06702 1-114)
Protocol: as §1, §2, §3, §4

human S100A8 = target: T11, human S100A8 (Homo sapiens, UniProt P05109); assay: SPR: human S100A8 binding to immobilised Q compound; conditions: 100 nM protein
T11 construct: made in house; host or cells: Escherichia coli or granulocytes
T11 sequence (P05109 1-93): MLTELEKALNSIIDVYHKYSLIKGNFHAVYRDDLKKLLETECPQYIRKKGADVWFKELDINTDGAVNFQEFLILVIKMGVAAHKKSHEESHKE
Protocol: as §1
Binding to the various surfaces was performed by injecting the analyte at a flow rate of 30 μl/min in a physiological buffer (HBS-P) containing 1 mM Ca^2+ and 10 μM Zn^2+ as proposed for S100A8/9 by Robinson et al.. […]

T2 sequence (Q15109 23-342 limits assumed): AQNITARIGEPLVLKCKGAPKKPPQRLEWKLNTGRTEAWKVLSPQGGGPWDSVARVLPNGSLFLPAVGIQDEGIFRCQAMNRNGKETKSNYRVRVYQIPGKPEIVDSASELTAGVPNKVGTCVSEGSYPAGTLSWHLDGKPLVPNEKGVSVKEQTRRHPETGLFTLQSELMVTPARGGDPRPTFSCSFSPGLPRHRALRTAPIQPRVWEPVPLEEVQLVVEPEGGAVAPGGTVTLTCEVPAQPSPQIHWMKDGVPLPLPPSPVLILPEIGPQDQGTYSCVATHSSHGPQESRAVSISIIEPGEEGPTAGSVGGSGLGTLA
T3 sequence (O00206 24-631 limits assumed): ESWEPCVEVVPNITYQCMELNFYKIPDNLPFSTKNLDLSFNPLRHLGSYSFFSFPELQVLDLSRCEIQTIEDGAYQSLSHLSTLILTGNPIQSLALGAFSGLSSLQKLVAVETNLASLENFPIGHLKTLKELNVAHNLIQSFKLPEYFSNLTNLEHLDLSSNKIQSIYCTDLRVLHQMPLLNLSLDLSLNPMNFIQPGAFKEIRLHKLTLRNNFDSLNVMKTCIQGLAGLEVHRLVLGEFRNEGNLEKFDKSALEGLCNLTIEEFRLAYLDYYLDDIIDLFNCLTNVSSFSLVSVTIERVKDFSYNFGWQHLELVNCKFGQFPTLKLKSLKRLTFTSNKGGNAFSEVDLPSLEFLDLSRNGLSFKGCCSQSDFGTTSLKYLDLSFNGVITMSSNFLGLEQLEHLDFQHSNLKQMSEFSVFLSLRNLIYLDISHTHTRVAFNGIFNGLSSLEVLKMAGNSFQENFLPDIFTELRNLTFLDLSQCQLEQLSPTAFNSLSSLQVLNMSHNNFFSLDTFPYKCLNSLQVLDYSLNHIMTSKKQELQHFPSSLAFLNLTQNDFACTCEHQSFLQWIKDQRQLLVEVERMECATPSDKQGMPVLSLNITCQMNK
T3 sequence (Q9Y6Y9 19-160): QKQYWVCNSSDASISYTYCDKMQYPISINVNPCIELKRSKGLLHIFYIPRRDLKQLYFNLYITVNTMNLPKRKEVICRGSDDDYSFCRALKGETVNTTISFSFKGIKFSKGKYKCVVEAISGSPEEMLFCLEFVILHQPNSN

**Q.** Which results are given for `CCc1cccc2c1c(O)c(C(=O)N(CC)c1ccccc1)c(=O)n2C` [ABR-215757]?
**A.** binding of recombinant S100A9 to Q compound coupled to solid phase (human S100A9): bound strongly; IC50 (human S100A9; 100 nM S100A9, competitor 7.81–1,000 μM, one-site competition model, 1 mM Ca2+ and 10 μM Zn2+): 37 µM; direct binding to RAGE (human RAGE): not observed; ED50 [1]: 0.04 mg/kg; direct binding to hTLR4/MD2 (human TLR4/MD2): negligible; TNFα production after LPS challenge ([2]; 3 μg LPS i.p., treatment 2 h before (ABR-215757 10 mg/kg)): significantly inhibited; TNFα production after LPS challenge ([2]; 6 μg LPS i.p., 10 mg/kg 2 h before): significantly inhibited; IC50 ([3]; 100 nM S100A9, competitor 7.81 to 1,000 μM, single experiment Figure 3C, read-out: IC50, inhibition of S100A9 binding to immobilised hTLR4/MD2): 23 µM; IC50 ([3]; Table S1, read-out: S100A9 binding IC50, hS100A9 TLR4): 59.7 µM; IC50 (mS100A8/A9 and mLPS-Trap): 334 µM; IC50 (mS100A8/A9 and mRAGE): 334 µM; IC50 (mS100A9): 940 µM; competition of mouse S100A9 interaction with solid-phase mouse TLR4/MD2 (mS100A9 and mLPS-Trap; 100 nM mouse S100A9): competed; IC50 (mS100A9 and mLPS-Trap; Table S1): 698 µM; competition of mouse S100A9 interaction with solid-phase mouse RAGE (mS100A9 and mRAGE/hFc; 100 nM mouse S100A9): competed; IC50 (mS100A9 and mRAGE/hFc; Table S1): 311 µM; IC50 ([4]; S100A9 binding IC50, hS100A9 RAGE, Table S1): 60.5 µM; IC50 ([4]; competitor concentration yielding 50% inhibition of S100A9 binding to RAGE surface, 100 nM S100A9, competitor 7.81–1,000 μM, single experiment Figure 2C): 26 µM; binding of S100A8 to immobilised Q compound (human S100A8): close to baseline levels

From paper PMC2671563 (PLoS Biology, 2009)
